Assay results reported in ChEMBL document CHEMBL4507301 (2021).

Key:
[1] = biological target: Alpha-1D adrenergic receptor (Rattus norvegicus) (UniProt P23944); assay: Inhibition of phenylephrine-induced contractions in bladder strips from rats with bladder outlet obstruction; type: tissue-based; conditions: Urinary bladder
[2] = biological target: Beta-2 adrenergic receptor (Homo sapiens) (UniProt P07550); assay: beta2 Eurofins-Panlabs ligand profiling; conditions: Compound concentration 10.0 uM
Chain of Beta-2 adrenergic receptor (Homo sapiens) (P07550 whole entry, looked up): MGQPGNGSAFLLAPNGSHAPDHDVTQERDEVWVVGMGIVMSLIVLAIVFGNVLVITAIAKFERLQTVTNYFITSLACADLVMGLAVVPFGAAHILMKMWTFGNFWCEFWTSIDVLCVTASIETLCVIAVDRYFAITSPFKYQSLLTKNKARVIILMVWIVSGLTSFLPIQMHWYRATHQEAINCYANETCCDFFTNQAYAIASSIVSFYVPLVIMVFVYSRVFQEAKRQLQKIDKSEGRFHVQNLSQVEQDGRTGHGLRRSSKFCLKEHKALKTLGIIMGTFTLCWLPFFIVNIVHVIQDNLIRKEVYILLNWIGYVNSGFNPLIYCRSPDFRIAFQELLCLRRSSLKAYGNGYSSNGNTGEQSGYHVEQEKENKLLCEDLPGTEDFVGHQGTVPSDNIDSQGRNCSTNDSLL

[3] = biological target: Alpha-2B adrenergic receptor (Homo sapiens, UniProt P18089); assay: alpha2B Eurofins-Panlabs ligand profiling
Chain of Alpha-2B adrenergic receptor (P18089 whole entry): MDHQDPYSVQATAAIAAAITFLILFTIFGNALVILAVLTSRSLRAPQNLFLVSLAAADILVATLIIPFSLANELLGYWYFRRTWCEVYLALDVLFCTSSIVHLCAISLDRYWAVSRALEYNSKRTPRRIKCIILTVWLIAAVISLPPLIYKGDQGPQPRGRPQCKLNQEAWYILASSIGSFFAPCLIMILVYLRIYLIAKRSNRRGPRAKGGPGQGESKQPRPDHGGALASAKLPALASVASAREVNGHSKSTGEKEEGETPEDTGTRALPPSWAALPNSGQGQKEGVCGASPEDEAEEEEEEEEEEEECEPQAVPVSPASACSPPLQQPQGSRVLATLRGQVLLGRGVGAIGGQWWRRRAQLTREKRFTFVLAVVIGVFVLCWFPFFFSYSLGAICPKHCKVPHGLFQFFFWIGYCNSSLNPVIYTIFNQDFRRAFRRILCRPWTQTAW

[4] = biological target: 5-hydroxytryptamine receptor 3A (Homo sapiens) (UniProt P46098); conditions: Compound concentration 10.0 uM
Chain of 5-hydroxytryptamine receptor 3A (Homo sapiens) (P46098 whole entry): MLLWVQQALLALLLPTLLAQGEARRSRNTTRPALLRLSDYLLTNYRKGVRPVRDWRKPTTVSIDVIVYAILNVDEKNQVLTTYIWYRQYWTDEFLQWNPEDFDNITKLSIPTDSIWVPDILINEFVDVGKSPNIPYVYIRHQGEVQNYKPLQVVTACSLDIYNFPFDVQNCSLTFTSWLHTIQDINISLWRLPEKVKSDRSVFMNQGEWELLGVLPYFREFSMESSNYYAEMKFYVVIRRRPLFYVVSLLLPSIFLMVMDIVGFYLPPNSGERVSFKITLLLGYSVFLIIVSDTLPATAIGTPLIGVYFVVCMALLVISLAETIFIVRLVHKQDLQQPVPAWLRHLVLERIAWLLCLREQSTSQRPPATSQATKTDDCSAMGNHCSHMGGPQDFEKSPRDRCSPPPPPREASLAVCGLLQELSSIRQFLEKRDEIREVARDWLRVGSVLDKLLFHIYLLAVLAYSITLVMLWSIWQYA

[5] = biological target: 5-hydroxytryptamine receptor 5A (Homo sapiens) (UniProt P47898); conditions: Compound concentration 10.0 uM
Chain of 5-hydroxytryptamine receptor 5A (Homo sapiens) (P47898 whole entry): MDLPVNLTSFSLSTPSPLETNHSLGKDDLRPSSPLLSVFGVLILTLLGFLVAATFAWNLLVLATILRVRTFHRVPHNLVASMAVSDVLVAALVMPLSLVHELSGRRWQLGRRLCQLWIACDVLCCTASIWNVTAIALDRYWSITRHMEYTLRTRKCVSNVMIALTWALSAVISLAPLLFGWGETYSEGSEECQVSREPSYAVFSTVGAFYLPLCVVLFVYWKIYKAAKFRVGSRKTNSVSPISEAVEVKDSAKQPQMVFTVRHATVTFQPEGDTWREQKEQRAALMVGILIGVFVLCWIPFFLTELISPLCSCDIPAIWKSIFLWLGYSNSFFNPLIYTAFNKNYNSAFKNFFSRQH

[6] = biological target: Serotonin 1 (5-HT1) receptor (Homo sapiens) (UniProt P30939+P28222+P08908+P28221+P28566); assay: 5-HT1 Eurofins-Panlabs ligand profiling; type: protein assay; conditions: Compound concentration 10.0 uM
[7] = biological target: T1, Alpha-2C adrenergic receptor (Homo sapiens) (UniProt P18825); assay: alpha2C Eurofins-Panlabs ligand profiling; conditions: Compound concentration 10.0 uM
T1 sequence (whole entry): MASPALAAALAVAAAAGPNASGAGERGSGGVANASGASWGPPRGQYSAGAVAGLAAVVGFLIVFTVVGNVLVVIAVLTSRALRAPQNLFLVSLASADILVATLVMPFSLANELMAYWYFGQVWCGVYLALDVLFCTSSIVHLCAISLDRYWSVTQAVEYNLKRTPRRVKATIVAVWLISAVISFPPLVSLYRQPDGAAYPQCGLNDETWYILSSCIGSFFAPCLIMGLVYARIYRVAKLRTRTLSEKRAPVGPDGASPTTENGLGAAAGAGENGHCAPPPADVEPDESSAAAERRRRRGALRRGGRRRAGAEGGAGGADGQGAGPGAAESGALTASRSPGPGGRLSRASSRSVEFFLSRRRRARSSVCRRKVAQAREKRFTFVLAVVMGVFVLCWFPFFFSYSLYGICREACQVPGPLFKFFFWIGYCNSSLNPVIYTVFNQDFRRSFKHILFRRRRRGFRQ

[8] = biological target: Beta-1 adrenergic receptor (Homo sapiens) (UniProt P08588); assay: beta1 Eurofins-Panlabs ligand profiling; conditions: Compound concentration 10.0 uM
Chain of Beta-1 adrenergic receptor (Homo sapiens) (P08588 whole entry, looked up): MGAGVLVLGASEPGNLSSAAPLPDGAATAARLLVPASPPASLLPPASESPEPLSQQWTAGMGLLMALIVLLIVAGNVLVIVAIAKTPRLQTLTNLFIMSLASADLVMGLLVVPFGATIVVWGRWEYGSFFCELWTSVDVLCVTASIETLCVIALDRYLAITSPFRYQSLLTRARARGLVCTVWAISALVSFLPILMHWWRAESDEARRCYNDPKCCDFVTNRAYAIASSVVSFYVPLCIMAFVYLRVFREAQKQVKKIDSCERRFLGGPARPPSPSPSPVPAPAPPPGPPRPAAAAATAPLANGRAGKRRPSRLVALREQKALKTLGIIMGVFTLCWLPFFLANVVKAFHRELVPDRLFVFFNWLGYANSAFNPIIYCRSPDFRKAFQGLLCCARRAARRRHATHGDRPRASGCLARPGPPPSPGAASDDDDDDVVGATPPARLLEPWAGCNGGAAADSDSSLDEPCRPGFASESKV

[9] = biological target: Alpha-1A adrenergic receptor (Homo sapiens, UniProt P35348); assay: GPCRScan assay: inhibition of Alpha1A; design: radioligand conc. used [nm] 0.2 - 1.0, parental cells stable HEK
Chain of Alpha-1A adrenergic receptor (P35348 whole entry): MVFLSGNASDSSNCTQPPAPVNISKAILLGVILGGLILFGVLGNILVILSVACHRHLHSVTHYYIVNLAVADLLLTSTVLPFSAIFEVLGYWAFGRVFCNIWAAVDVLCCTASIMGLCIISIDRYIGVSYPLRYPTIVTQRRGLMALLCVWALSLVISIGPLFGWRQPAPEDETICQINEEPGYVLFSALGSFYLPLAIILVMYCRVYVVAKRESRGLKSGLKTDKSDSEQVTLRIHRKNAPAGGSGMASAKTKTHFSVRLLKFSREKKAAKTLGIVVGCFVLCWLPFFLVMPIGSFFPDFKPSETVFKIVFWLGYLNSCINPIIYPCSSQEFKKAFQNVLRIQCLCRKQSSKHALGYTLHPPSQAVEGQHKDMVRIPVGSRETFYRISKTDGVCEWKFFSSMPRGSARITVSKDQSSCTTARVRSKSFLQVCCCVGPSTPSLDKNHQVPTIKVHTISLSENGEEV

[10] = biological target: Alpha-1B adrenergic receptor (Homo sapiens, UniProt P35368); assay: Binding assay (ADRA1B)
Chain of Alpha-1B adrenergic receptor (P35368 whole entry): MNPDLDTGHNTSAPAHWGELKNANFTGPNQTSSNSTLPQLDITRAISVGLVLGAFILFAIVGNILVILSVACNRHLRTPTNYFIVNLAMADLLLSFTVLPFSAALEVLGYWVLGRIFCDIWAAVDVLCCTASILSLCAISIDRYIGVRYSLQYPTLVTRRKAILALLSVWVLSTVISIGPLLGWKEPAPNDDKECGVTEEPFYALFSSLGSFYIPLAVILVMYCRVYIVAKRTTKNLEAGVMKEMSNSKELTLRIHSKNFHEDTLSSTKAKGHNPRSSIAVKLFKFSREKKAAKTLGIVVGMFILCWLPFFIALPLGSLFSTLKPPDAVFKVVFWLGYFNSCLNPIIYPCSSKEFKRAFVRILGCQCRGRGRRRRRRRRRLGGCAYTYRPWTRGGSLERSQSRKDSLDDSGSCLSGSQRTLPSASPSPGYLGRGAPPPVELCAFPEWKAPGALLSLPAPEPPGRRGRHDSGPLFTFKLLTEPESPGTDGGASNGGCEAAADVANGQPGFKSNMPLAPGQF

[11] = biological target: Alpha-1A adrenergic receptor (Homo sapiens) (UniProt P35348); conditions: Compound concentration 10.0 uM
Chain of Alpha-1A adrenergic receptor (Homo sapiens) (P35348 whole entry): as the sequence (P35348 whole entry) above

[12] = biological target: Beta-3 adrenergic receptor (Homo sapiens) (UniProt P13945); conditions: Compound concentration 10.0 uM
Chain of Beta-3 adrenergic receptor (Homo sapiens) (P13945 whole entry, looked up): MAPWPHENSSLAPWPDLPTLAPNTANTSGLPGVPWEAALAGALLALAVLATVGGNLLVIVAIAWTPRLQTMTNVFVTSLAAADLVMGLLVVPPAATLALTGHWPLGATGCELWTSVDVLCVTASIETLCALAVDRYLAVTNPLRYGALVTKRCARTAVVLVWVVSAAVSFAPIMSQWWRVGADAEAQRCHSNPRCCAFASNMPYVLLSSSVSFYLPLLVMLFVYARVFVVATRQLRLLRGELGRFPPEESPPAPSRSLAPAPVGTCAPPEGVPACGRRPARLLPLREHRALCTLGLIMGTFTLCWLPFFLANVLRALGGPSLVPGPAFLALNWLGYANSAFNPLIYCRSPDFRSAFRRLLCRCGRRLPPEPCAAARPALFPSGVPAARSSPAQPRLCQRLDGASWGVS

[13] = biological target: Alpha-1D adrenergic receptor (Homo sapiens, UniProt P25100); assay: GPCRScan assay: inhibition of Alpha1D; design: radioligand conc. used [nm] 0.3 – 1.0, parental cells stable
Chain of Alpha-1D adrenergic receptor (P25100 whole entry): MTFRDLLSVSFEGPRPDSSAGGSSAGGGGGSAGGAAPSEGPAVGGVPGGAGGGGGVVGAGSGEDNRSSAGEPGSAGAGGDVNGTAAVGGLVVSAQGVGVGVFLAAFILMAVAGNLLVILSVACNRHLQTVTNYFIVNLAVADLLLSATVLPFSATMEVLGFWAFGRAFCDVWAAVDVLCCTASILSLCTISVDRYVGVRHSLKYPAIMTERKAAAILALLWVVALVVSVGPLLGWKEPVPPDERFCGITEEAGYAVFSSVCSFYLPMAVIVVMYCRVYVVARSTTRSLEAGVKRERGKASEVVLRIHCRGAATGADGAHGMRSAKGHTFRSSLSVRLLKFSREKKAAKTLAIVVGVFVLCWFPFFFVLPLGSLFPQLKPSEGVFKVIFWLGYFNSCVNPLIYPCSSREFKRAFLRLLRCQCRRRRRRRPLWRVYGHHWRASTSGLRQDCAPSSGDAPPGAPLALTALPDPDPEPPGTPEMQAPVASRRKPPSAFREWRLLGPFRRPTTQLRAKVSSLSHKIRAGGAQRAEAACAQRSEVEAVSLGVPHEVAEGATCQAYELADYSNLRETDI

[14] = biological target: Alpha-2B adrenergic receptor (Homo sapiens) (UniProt P18089); conditions: Compound concentration 10.0 uM
Chain of Alpha-2B adrenergic receptor (Homo sapiens) (P18089 whole entry): as the sequence (P18089 whole entry) above

Chain of Alpha-1D adrenergic receptor (Rattus norvegicus) (P23944 whole entry): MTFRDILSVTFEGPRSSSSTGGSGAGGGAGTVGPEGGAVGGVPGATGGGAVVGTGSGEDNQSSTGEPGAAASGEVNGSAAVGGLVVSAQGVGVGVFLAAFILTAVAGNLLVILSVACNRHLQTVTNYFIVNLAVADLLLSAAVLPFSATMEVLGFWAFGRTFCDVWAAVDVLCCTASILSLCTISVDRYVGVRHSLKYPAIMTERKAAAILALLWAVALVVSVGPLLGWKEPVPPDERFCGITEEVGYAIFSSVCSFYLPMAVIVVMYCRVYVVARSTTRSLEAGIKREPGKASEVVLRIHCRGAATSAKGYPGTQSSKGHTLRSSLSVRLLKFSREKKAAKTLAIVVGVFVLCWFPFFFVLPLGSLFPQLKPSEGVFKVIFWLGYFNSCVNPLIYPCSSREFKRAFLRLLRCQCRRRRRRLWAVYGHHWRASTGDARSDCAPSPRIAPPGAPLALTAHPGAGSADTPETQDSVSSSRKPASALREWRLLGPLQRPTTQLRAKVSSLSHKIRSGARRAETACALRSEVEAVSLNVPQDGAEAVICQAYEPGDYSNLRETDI

SMILES	IC30 [1] [nM]	inhibition [2] [%]	IC50 [3] [nM]	inhibition [4] [%]	inhibition [5] [%]	inhibition [6] [%]	inhibition [7] [%]	inhibition [8] [%]	Ki [9] [nM]	Ki [10]	inhibition [11] [%]	inhibition [12] [%]	Ki [13] [nM]	inhibition [14] [%]
C[C@H](c1cccc(C#N)c1)n1cc(Cl)cc(C(N)=O)c1=N [(R)-9s]	15	4	1400	-5.97	0.88	0	10	-5	–	–	–	–	–	–
C[C@@H](c1cccc(C#N)c1)n1cc(Cl)cc(C(N)=O)c1=N [(S)-9s]	–	–	–	–	–	–	–	–	1070	> 1200 nM (not active)	54.8	-4.49	1480	0.7
